Measured values as given in patent US11304431B2, “Sweetener and flavor compositions, methods of making and methods of use thereof” (EPC Natural Products Co., Ltd., priority 2018, dated 2022).
Residues, ends and D or L forms follow the SMILES beside them.

How the values were obtained:
[1] = sweetness depends on the tested concentration compared with sucrose; cited from earlier work
[2] = HPLC/DAD/MS of Maillard reaction intermediates (MRI, Amadori products), unreacted partners and degradation kinetics at various pH; details: 120 °C; for % formation from degraded Phe: n.d. = not detected
Description: For HPLC analysis the reacted samples were injected after filtration (2 μm syringe filters).
Mobile Phase A consisted of a 0.1% formic acid in water. Mobile Phase B consisted of 0.1% formic acid in acetonitrile. […] Injection volume was set to 20 μl.
The mobile phase consisted of (A) 0.1% HCOOH (v/v) and (B) AcCN. A gradient of 5% (B) to 15% (B) was applied between 0 min to 15 min. Between 15 and 20 min (B) was increased to 45% which was kept for 5 min. Detection consisted of UV/VIS-DAD (205 nm, 254 nm, 450 nm) coupled to ESI-MS (pos mode, 300° C., TIC from m/z 120-1200, fragmentor 100).
Quantitative evaluation was performed using external standardization.

[3] = DPPH radical-scavenging activity (Example 65); details: Reb-A 10 mM with or without amino acid, 100° C., 0-5 hours, diluted 1:10; FIG. 49 and 50
Description: 1 mg 1,1-Diphenyl-2-picrylhydrazyl radical (DPPH)/ml ethanol, dilution to assay concentration were prepared in ethanol (40 μg/mL); Calibration samples were prepared with Ascorbic acid in a concentration of 0-10 μg/mL; as a negative control sample, water was used.
Samples in aqueous solution were used as such or diluted with water.
A 0.1 ml sample (or calibration standard) was mixed with 3.9 ml solution of DPPH (100 μMolar) and reacted while protected from light at room temperature for 30 min. Absorbance was determined at 517 nm against ethanol.
10 mM of amino acid and/or 10 mM sugar were dissolved in 10 ml 0.1 mM KH2PO4-buffer, pH=7.8.
The samples were kept at 100° C. in sealed glass vials (Pyrex 15 ml with screw caps) for 0 (before reaction), 2.5 or 5.0 hours. Thereafter the samples were transferred to an ice water bath and cooled down to room temperature. These samples were diluted 1:10 and used for the test assay for anti-oxidant potential.

[4] = reaction of Phe and Suc, pH = 5.5, 1.0 h

SMILES | times sweeter than sucrose (sugar, cane sugar) [1] | further results
COC(=O)[C@H](Cc1ccccc1)NC(=O)[C@@H](N)CC(=O)O [Aspartame] (H-Asp-Phe-OMe) | 160-200 times | 
O=C(O)[C@H](Cc1ccccc1)NCC(=O)[C@@H](O)[C@H](O)[C@H](O)CO [MRI (Phe-Glu)] |  | % formation from degraded Phe [2, 4]: <0.10%; % formation from degraded Phe ([2]; reaction of Phe and Suc, pH = 7.0, 1.0 h): 0.54%; % formation from degraded Phe ([2]; reaction of Phe and Suc, pH = 8.5, 1.0 h): 0.84%
OC[C@@H](O)[C@@H](O)[C@H](O)[C@H](O)CO [Mannitol] | 0.55-0.65 times | 
N[C@H](Cc1ccccc1)C(=O)O [Phe] |  | % degradation [2, 4]: 5.50%; % degradation ([2]; reaction of Phe and Xyl, pH = 7.0, 1.0 h): 4.80%
C=C1C[C@@]23CC[C@H]4[C@@](C)(CCC[C@@]4(C)C(=O)O[C@@H]4O[C@H](CO)[C@@H](O)[C@H](O)[C@H]4O)[C@@H]2CC[C@]1(O[C@@H]1O[C@H](CO)[C@@H](O)[C@H](O[C@@H]2O[C@H](CO)[C@@H](O)[C@H](O)[C@H]2O)[C@H]1O[C@@H]1O[C@H](CO)[C@@H](O)[C@H](O)[C@H]1O)C3 [Reb-A, Rebaudioside A] |  | anti-oxidant properties [3]: substantial anti-oxidant properties
C=C1C[C@@]23CC[C@H]4[C@@](C)(CCC[C@@]4(C)C(=O)O[C@@H]4O[C@H](CO)[C@@H](O)[C@H](O)[C@H]4O)[C@@H]2CC[C@]1(O[C@@H]1O[C@H](CO)[C@@H](O)[C@H](O)[C@H]1O)C3 [Rubusoside] | 200 times | 
C[C@H](CC[C@@H](O[C@@H]1O[C@H](CO)[C@@H](O)[C@H](O)[C@H]1O[C@@H]1O[C@H](CO)[C@@H](O)[C@H](O)[C@H]1O)C(C)(C)O)[C@H]1CC[C@@]2(C)[C@H]3CC=C4[C@@H](CC[C@H](O[C@@H]5O[C@H](CO[C@@H]6O[C@H](CO)[C@@H](O)[C@H](O)[C@H]6O)[C@@H](O)[C@H](O)[C@H]5O)C4(C)C)[C@]3(C)[C@H](O)C[C@]12C [mogroside IV] | 126 times | 
C[C@H](CC[C@@H](O[C@@H]1O[C@H](CO[C@@H]2O[C@H](CO)[C@@H](O)[C@H](O)[C@H]2O)[C@@H](O)[C@H](O)[C@H]1O[C@@H]1O[C@H](CO)[C@@H](O)[C@H](O)[C@H]1O)C(C)(C)O)[C@H]1CC[C@@]2(C)[C@@H]3CC=C4[C@@H](CC[C@H](O[C@@H]5O[C@H](CO[C@@H]6O[C@H](CO)[C@@H](O)[C@H](O)[C@H]6O)[C@@H](O)[C@H](O)[C@H]5O)C4(C)C)[C@]3(C)[C@H](O)C[C@]12C [mogroside V] | 256-344 times | 
O=S(=O)([O-])NC1CCCCC1.[Na+] [sodium cyclamate] | about 30 times | 
OC[C@H]1O[C@H](O[C@]2(CCl)O[C@H](CCl)[C@@H](O)[C@@H]2O)[C@H](O)[C@@H](O)[C@H]1Cl [sucralose] | about 600 times | 
